In patent US9316633B2, “Methods for identifying inhibitors of solute transporters” (The Regents of the University of California, priority 2006, dated 2016):

Experiments:
rat UT-A1 = biological target: T1, rat UT-A1 (Rattus norvegicus, UniProt Q62668); test: UT-A1-mediated urea flux across stably transfected MDCK cell layers; format: cell-based; settings: 10 μM forskolin; 0.7 mM phloretin
T1 construct: expressed in transfected cells
T1 sequence (Q62668 1-929): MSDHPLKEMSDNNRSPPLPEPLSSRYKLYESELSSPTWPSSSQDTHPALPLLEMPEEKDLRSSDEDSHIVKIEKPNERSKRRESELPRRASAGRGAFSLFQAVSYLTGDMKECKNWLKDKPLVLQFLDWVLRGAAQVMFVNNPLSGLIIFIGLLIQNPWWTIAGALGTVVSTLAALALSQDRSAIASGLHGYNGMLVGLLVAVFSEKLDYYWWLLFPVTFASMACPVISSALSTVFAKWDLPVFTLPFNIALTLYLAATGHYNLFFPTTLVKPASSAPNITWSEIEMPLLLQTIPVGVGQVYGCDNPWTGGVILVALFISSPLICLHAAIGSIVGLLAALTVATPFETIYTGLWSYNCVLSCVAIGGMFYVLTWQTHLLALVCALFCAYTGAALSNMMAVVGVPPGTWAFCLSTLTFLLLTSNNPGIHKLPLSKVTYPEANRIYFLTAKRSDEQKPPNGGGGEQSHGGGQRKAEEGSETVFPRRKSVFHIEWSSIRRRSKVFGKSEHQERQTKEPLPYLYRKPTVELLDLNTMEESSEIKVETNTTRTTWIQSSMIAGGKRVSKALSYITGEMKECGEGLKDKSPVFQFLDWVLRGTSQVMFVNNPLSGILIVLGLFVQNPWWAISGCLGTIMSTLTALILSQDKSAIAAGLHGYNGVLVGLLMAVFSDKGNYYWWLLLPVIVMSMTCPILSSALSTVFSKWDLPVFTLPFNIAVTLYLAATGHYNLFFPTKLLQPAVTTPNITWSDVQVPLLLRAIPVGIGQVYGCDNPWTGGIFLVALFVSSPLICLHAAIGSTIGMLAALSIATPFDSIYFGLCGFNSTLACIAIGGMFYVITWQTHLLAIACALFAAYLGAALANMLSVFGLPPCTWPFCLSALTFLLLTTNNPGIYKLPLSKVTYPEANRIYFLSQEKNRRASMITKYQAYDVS
Protocol: Concentration-inhibition studies were performed to study the effect of the active mouse UT-B inhibitors on urea transport by UT-A. The amino acid sequences of UT-B and UT-A urea transporter isoforms share significant similarity. The cells used in these studies were MDCK cells that expressed rat UT-A1. MDCK-UT-A1-expressing cells were grown on collagen-coated porous filters until they were electrically tight, at which point 15 mM urea was introduced into buffer bathing the basolateral cell surface. […]
UT-A1-facilitated urea flux in the basolateral-to-apical direction across unstimulated and forskolin-stimulated MDCK-UT-A1 cell layers was measured in response to a 15-mM urea gradient. […] Five μL samples of apical fluid were collected at specified times during incubation at 37° C., and urea concentration was determined using a commercial kit based on chromogenic urea complexation at 520-nm wavelength (Quantichrom™ Urea Assay Kit, BioAssay Systems, Hayward, Calif.). […] Aforsk, and Aphlor were averaged absorbance values (at 520 nm) for cultures treated with forskolin and forskolin+phloretin, respectively, and Atest were values from cultures treated with forskolin+ test compound.

RBCs from wild-type mice = test: Osmotic water permeability by stopped-flow light scattering, RBCs from wild-type mice; format: cell-based, mouse
Protocol: RBC urea and water permeabilities were assayed by stopped-flow light scattering using a Hi-Tech Sf-51 instrument (Wiltshire, UK). For measurement of urea permeability, dilutions of whole blood (human or mouse; see Example 1) in PBS (hematocrit: approximately 0.5%) were incubated with test compounds for 5 min and then subjected to a 250-mM inwardly directed gradient of urea. After an initial osmotic shrinking phase, the kinetics of increasing cell volume caused by urea influx were measured as the time-course of 90° scattered light intensity at 530 nm, with increasing cell volume resulting in reduced scattered light intensity. As a positive control, 0.7 mM phloretin was added to the RBC suspension prior to stopped-flow experiments. Measurements of water permeability were carried out similarly, with sucrose (cell-impermeant) used instead of urea to establish a 250-mM osmotic gradient. As a positive control, HgCl2 (0.3 mM) was added to the RBC suspension prior to stopped-flow measurements. Osmotic water permeability coefficients (Pf) were computed from light scattering data as described (van Hoek et al., J. Biol. Chem. 267:18267-69 (1992)).
This example describes chemical knock-out of UT-B by UT-B inhibitors in RBCs and the effect on UT-B-facilitated water transport. […] Osmotic water permeability was measured by stopped-flow light scattering in RBCs from wild-type and AQP1-null mice as shown in FIG. 8A. […] AQP1-null RBCs had greater than 5-fold reduced Pf compared to wild-type RBCs.

UT-B = biological target: T2, UT-B (Homo sapiens, UniProt Q13336); test: RBC lysis assay, human RBCs loaded with acetamide; format: cell-based; settings: 0.7 mM phloretin; control approximately 1.6 M
T2 construct: the indicator cells are red blood cells that endogenously express the UT-B urea transporter; endogenous in cells; host or cells: human red blood cells (whole venous blood, single donor)
T2 sequence (Q13336 1-389): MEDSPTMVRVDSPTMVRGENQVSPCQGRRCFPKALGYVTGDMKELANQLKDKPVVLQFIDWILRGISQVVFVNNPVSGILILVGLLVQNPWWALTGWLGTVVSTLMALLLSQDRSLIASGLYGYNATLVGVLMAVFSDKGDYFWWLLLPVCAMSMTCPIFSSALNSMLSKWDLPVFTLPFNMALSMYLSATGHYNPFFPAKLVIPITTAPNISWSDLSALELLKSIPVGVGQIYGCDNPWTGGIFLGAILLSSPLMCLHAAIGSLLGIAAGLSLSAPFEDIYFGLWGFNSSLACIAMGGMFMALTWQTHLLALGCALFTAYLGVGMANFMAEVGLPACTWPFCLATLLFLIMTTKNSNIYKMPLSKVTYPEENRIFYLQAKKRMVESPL

urea transporter (UT) = settings: previously available UT inhibitors; cited from earlier work

O=C(CCc1ccc(O)cc1)c1c(O)cc(O)cc1O [phloretin, reference compound]
effect on UT-A1-facilitated urea transport (rat UT-A1): inhibited | effect on water transport (RBCs from wild-type mice): little effect | change in Pf (RBCs from wild-type mice; 0.7 mM): small but significant reduction | acetamide concentration at fifty percent lysis (UT-B): approximately 1.1 M | concentration exhibiting activity as UT inhibitor (urea transporter (UT)): > 0.5 mM
